Measurements from US6017957A (priority 1989, dated 2000).
Where two headings read alike, the source gives them in different places.

Experiments:
[1] = test system: bicuculline-induced convulsions; type: in vivo, male NIH-Swiss mice
Protocol: (§1) Male (25-30 g) NIH-Swiss mice (Harlan Sprague-Dawley, Frederick, Md.) were group housed in 32 cm×25 cm×15 cm plastic cages (10-15/cage) with food and water freely available. Mice were injected intraperitoneally with the test substance and challenged fifteen minutes later (unless otherwise specified) with NMDA (125 mg/kg), pentylenetetrazole (PTZ) (80mg/kg), strychnine (strych.) hemisulfate (2 mg/kg, as the base), bicuculline (bicuc.) (6 mg/kg) or maximal electroshock (MES). NMDA, PTZ, and strych. hemisulfate were dissolved in distilled water. Bicuculline was dissolved in 0.01 N HC1. These compounds were injected in a volume of 0.1 ml 1-aminocyclopropanecarboxylates were dissolved in distilled water and doses ≤500 mg/kg injected in a volume of 0.1 ml; doses >500 mg/kg were injected in proportionately larger volumes. Immediately after convulsant challenge, mice were placed in 28.5 cm×17.8 cm×12 cm plastic cages (1/cage) and observed for 15 minutes. The presence or absence of convulsions and the time to the first convulsive episode (latency) were noted. MES were produced by applying a 50 mA current through alligator clips attached to the pinnae for 0.2 s.

NMDA-induced convulsions = NMDA-induced convulsions and death (anticonvulsant activity); type: in vivo, male NIH-Swiss mice; conditions: for ED50: Mus musculus, ip, read-out: ED50, protection against NMDA-induced convulsions and death; for dose-response curve shape: NMDA-induced convulsions; for fold more potent than parent compound (ACPC): anticonvulsant potency in vivo
Protocol: as §1

[2] = test system: maximal electroshock seizures; assay: Maximal electroshock seizures (MES); type: in vivo, male NIH-Swiss mice; conditions: for effect on MES: ACPC 200-2000, ACPCM 114-571 mg/kg
Protocol: as §1

[3] = test system: motor performance (rotarod); assay: Motor performance, rotarod; type: in vivo, NIH-Swiss mice; conditions: for impairment of performance in rotarod test: ACPC 100-2000, ACPCM 19-571 mg/kg, MK-801 1 mg/kg, thirty minutes; for % Impairment, Rotarod: i.p., ACPC 400-2000, ACPCM 114-571, MK-801 1 mg/kg
From the text: (§2) Evaluation of motor performance:

[4] = test system: motor performance (horizontal wire); assay: Motor performance, horizontal (hanging) wire test; type: in vivo, NIH-Swiss mice; conditions: for impairment of performance in hanging (horizontal) wire test: ACPC 100-2000, ACPCM 19-571 mg/kg, MK-801 1 mg/kg, thirty minutes; for % Impairment, Hanging Wire: i.p., ACPC 400-2000, ACPCM 114-571, MK-801 1 mg/kg
From the text: as §2

[5] = test system: pentylenetetrazole (PTZ)-induced convulsions; conditions: MK-801; Clineschmidt et al, 1982a; cited from earlier work
[6] = test system: strychnine-induced convulsions; conditions: MK-801; Clineschmidt et al, 1982a; cited from earlier work
[7] = test system: bicuculline-induced convulsions; conditions: MK-801; Clineschmidt et al, 1982a; cited from earlier work
[8] = molecular target: T1, strychnine-insensitive glycine receptors (NMDA receptor complex) (Rattus norvegicus, UniProt P35439); conditions: cited from earlier work
T1 construct: Synaptic membranes were prepared from forebrains of adult; from tissue; host or cells: forebrain (whole brain minus cerebellum and brainstem) synaptic membranes of adult male Sprague-Dawley rats

[9] = test system: [^3 H]glycine binding (NMDA receptor complex); conditions: MK-801 10 μM; Marvizon and Skolnick, 1988; cited from earlier work
Overt behavioral effects = conditions: for overt behavioral effects: ACPC 100-2000, ACPCE 39-195, ACPCM 19-571 mg/kg
[10] = test system: pentylenetetrazole (PTZ)-induced convulsions; assay: PTZ-induced convulsions; type: in vivo, male NIH-Swiss mice
Protocol: as §1

[11] = test system: strychnine-induced convulsions; type: in vivo, male NIH-Swiss mice
Protocol: as §1

NMDA receptor complex = conditions: compared with glycine; Marvizon et al, 1989; cited from earlier work
[12] = test system: NMDA-gated cation channels; conditions: Nadler et al, 1988; cited from earlier work
[13] = test system: strychnine insensitive glycine binding site of the N-methyl-D-aspartate (NMDA) receptor complex; conditions: Marvizon, 1989; cited from earlier work
[14] = molecular target: T1, strychnine-insensitive glycine receptors (NMDA receptor complex); assay: Inhibition of [^3 H]glycine binding; type: male Sprague-Dawley rats (forebrain synaptic membranes); conditions: rat forebrain synaptic membranes, 0-4°, 60 min
Protocol: Membrane preparation: Synaptic membranes were prepared from forebrains of adult (250-350 g) male Sprague-Dawley rats (Taconic Farms, Germantown, N.Y.) by modification of the method of Bristow et al, (1986). In brief, forebrains (whole brain minus cerebellum and brainstem) were weighed and then disrupted for 30 s (Ultra-Turrax, Model STD) in 10 volumes of 0.32 M sucrose containing 5 mM HEPES/4.5 mM Tris pH 7.4. The homogenate was diluted to 50 volumes with this buffer and centrifuged for 10 minutes (1000×g). […]
[^3 H]Glycine binding: Immediately prior to assay, aliquots were thawed at 0-40 and "washed" 3 more times as described above. Membranes (0.1-0.3 mg prot.) were incubated for 60 minutes at 0-4° in HEPES-Tris buffer containing 1 mM MgCl2, ([^3 H]glycine (20 Ci/mmol, ISN, Irvine, Calif.), and drugs as indicated. Nonspecific binding was defined using 1 mM glycine. Incubations (1 ml) were terminated by centrifugation (Eppendorf Model 5414 Microfuge, 5 minutes) and the pellets washed superficially with 1 ml of assay buffer. The pellets were solubilized with 0.5 ml of NCS (Amersham, Arlington Heights, Ill.), agitated for 45 minutes, and 0.05 ml of glacial acetic acid added. Four ml of OCS (Amersham) was added and the radioactivity measured in a Beckman LS 5801 liquid scintillation counter.

[15] = NMDA 125 mg/kg, vehicle injected mice
[16] = i.p., 15 min before NMDA 125 mg/kg, ACPC 100-500, ACPCE 39-195, ACPCM 19-190 mg/kg
[17] = ACPC 200-2000, ACPCM 114-571 mg/kg i.p.

Compound: CN1CCc2cc3c(cc2[C@H]1[C@@H]1OC(=O)c2c1ccc1c2OCO1)OCO3 [bicuculline, reference compound]
- convulsions, % of mice ([1]; bicuculline 6 mg/kg): 100%
- latency to convulsions ([1]; bicuculline 6 mg/kg): 2.1 ± 0.3 min

Compound: CN[C@H](CC(=O)O)C(=O)O [NMDA, N-methyl-D-aspartate, reference compound]
- convulsions and death, mice affected (NMDA-induced convulsions; [15]): all
- latency to convulsions (NMDA-induced convulsions; [15]): 4.6 ± 0.4 min

Compound: C[C@]12N[C@H](Cc3ccccc31)c1ccccc12 [MK-801, (+)-5-Methyl-10,11-dihydro-5H-dibenzo [a,d]cyclo-hepten-5,10-imine, reference compound]
- Effect on convulsions induced by NMDA (125) (NMDA-induced convulsions; MK-801 1 mg/kg i.p., positive control, superscript 3): +
- protection against NMDA-induced lethality (NMDA-induced convulsions; MK-801 1 mg/kg, thirty minutes following administration): complete protection
- Effect on convulsions induced by MES ([2]; MK-801 1 mg/kg i.p., superscripts 1,3): +
- abolished hindclimb tonic extensor component of MES, % of mice ([2]; MK-801 1 mg/kg, thirty minutes before MES): 87%
- impairment of performance in rotarod test [3]: complete impairment
- % Impairment, Rotarod [3]: 100%
- impairment of performance in hanging (horizontal) wire test [4]: complete impairment
- % Impairment, Hanging Wire [4]: 100%
- Effect on convulsions induced by PTZ (80) [5]: +
- Effect on convulsions induced by STRYCH. (2) [6]: -
- Effect on convulsions induced by BICUC. (6) [7]: +
- Inhibition of [^3 H] glycine binding, mode ([8]; MK-801, Marvizon and Skolnick, 1988): noncom-
- inhibition of activation of [^3 H]glycine binding by Mg^+2 [9]: non-competitively inhibits
- hyperactivity (Overt behavioral effects; MK-801 1 mg/kg, thirty minutes after administration): profound hyperactivity

Compound: NC1(C(=O)O)CC1 [ACPC, 1-aminocyclopropanecarboxylic acid]
- anticonvulsant effect still manifest after (duration) (NMDA-induced convulsions; ACPC 400 mg/kg): 30 min
- maximum protection against NMDA-induced convulsions (NMDA-induced convulsions; ACPC 400 mg/kg): 85%
- protection against NMDA-induced convulsions and death (efficacy, time) (NMDA-induced convulsions; ACPC 400 mg/kg, 15 minutes prior to NMDA): most efficacious
- ED50 (NMDA-induced convulsions): 234 mg/kg
- dose-response curve shape (NMDA-induced convulsions): "bell-shaped" dose-response curve
- Complete protection against NMDA-induced convulsions (NMDA-induced convulsions; i.p.): inability of ACPC to completely block NMDA-induced convulsions
- Effect on convulsions induced by NMDA (125) (NMDA-induced convulsions; [16]): +
- latency to convulsions induced by PTZ ([10]; ACPC 400 mg/kg): not significantly altered
- protection against PTZ-induced convulsions ([10]; ACPC 400 mg/kg): did not afford significant protection
- Effect on convulsions induced by PTZ (80) ([10]; ACPC 400 mg/kg i.p., PTZ 80 mg/kg): -
- latency to convulsions induced by bicuc. ([1]; ACPC 400 mg/kg): not significantly altered
- protection against bicuc.-induced convulsions ([1]; ACPC 400 mg/kg): did not afford significant protection
- Effect on convulsions induced by BICUC. (6) ([1]; ACPC 400 mg/kg i.p., bicuculline 6 mg/kg): -
- latency to convulsions induced by strych. ([11]; ACPC 400 mg/kg): not significantly altered
- protection against strych.-induced convulsions ([11]; ACPC 400 mg/kg): did not afford significant protection
- Effect on convulsions induced by STRYCH. (2) ([11]; ACPC 400 mg/kg i.p., strychnine 2 mg/kg): -
- effect on MES [2]: Neither ACPC (200-2000 mg/kg) nor ACPCM (114-571 mg/kg) had a significant, dose-dependent effect
- Effect on convulsions induced by MES [2, 17]: -
- impairment of performance in rotarod test [3]: no impairment
- % Impairment, Rotarod [3]: 0%
- impairment of performance in hanging (horizontal) wire test [4]: no impairment
- % Impairment, Hanging Wire [4]: 0%
- IC50 ([8]; ACPC, Marvizon et al, 1989, read-out: Inhibition of [^3 H] glycine binding IC50): 38 ± 7 nM
- inhibition of strychnine-insensitive [^3 H]glycine binding (type) ([8]; Marvizon et al, 1989): potent, competitive inhibitor
- Ki ([8]; Marvizon et al, 1989, read-out: affinity K1 for strychnine-insensitive glycine receptors in vitro): 32 nM
- enhancement of [3H]MK-801 binding (NMDA receptor complex): enhances [3H]MK-801 binding to this supramolecular complex with a lower efficacy than glycine
- enhancement of [^3 H]TCP binding [12]: enhances [^3 H]TCP binding
- partial agonism at strychnine insensitive glycine binding site [13]: potent and selective partial agonist
- overt behavioral effects (Overt behavioral effects): No overt behavioral effects
- overt behavioral effects or neurotoxicity (Overt behavioral effects; mouse, in vivo): lack of overt behavioral effects or neuro-toxicity
- therapeutic index versus competitive or non-competitive NMDA receptor antagonists (Overt behavioral effects; mouse, in vivo): greater therapeutic index

Compound: O=C1C[C@@H]2OCC=C3CN4CC[C@]56c7ccccc7N1[C@H]5[C@H]2[C@H]3C[C@H]46 [strychnine, reference compound]
- convulsions, % of mice ([11]; strychnine 2 mg/kg): 100%
- latency to convulsions ([11]; strychnine 2 mg/kg): 3.1 ± 0.4 min

Compound: CCOC(=O)C1(N)CC1 [ACPCE, ethyl l-aminocyclopropanecarboxylate]
- ED50 (NMDA-induced convulsions): 100 mg/kg
- dose-response curve shape (NMDA-induced convulsions): "bell-shaped" dose response curve
- fold more potent than parent compound (ACPC) (NMDA-induced convulsions): ~ 2.3 fold
- Complete protection against NMDA-induced convulsions (NMDA-induced convulsions; i.p.): neither ester could completely block NMDA-induced convulsions and deaths
- Effect on convulsions induced by NMDA (125) (NMDA-induced convulsions; [16]): +
- IC50 [14]: > 40000 nM
- overt behavioral effects (Overt behavioral effects): No overt behavioral effects
- overt behavioral effects or neurotoxicity (Overt behavioral effects; mouse, in vivo): no overt behavioral effects or neurotoxicity were observed

Compound: C1CCc2nnnn2CC1 [pentylenetetrazole, reference compound]
- convulsions, % of mice ([10]; PTZ 80 mg/kg): 100%
- latency to convulsions ([10]; PTZ 80 mg/kg): 1.4 ± 0.2 min

Compound: COC(=O)C1(N)CC1 [ACPCM, methyl 1-aminocyclopropanecarboxylate]
- maximum efficacy apparent after injection (time) (NMDA-induced convulsions; ACPCM 114 mg/kg): 5 to 15 min
- onset and duration of anticonvulsant action relative to ACPC (NMDA-induced convulsions; ACPCM 114 mg/kg): manifest more rapidly than ACPC but of shorter duration
- ED50 (NMDA-induced convulsions): 46 mg/kg
- dose-response curve shape (NMDA-induced convulsions): "bell-shaped" dose response curve
- fold more potent than parent compound (ACPC) (NMDA-induced convulsions): ~ 5 fold
- Complete protection against NMDA-induced convulsions (NMDA-induced convulsions; i.p.): neither ester could completely block NMDA-induced convulsions and deaths
- Effect on convulsions induced by NMDA (125) (NMDA-induced convulsions; [16]): +
- effect on MES [2]: Neither ACPC (200-2000 mg/kg) nor ACPCM (114-571 mg/kg) had a significant, dose-dependent effect
- Effect on convulsions induced by MES [2, 17]: -
- impairment of performance in rotarod test [3]: no impairment
- % Impairment, Rotarod [3]: 0%
- impairment of performance in hanging (horizontal) wire test [4]: no impairment
- % Impairment, Hanging Wire [4]: 0%
- IC50 [14]: > 40000 nM
- overt behavioral effects (Overt behavioral effects): No overt behavioral effects
- overt behavioral effects or neurotoxicity (Overt behavioral effects; mouse, in vivo): no overt behavioral effects or neurotoxicity were observed
